Laboratory results as given in patent publication EP2931723B1, “NEW BICYCLIC COMPOUNDS AND THEIR USE AS ANTIBACTERIAL AGENTS AND -LACTAMASE INHIBITORS” (Fedora Pharmaceuticals Inc., priority 2012, dated 2014).
Like-named read-outs stand apart in the source and are kept apart here.

Tests used:
Assay type in all cases: cell-based
[1] = system: K. pneumo JMI 2674; assay: MIC, antibacterial and synergistic activity; conditions: K. pneumo JMI 2674 (CTX-M15 (ESBL)); substance alone
[2] = system: K. pneumo JMI 4088; assay: MIC, antibacterial and synergistic activity; conditions: K. pneumo JMI 4088 (KPC-3 (Cpase)); substance alone
[3] = system: metallo β-lactamase producing bacteria; assay: MIC in combination with various antibiotics against metallo β-lactamase producing bacteria (Tables 10-12); conditions: agent alone
Protocol: (§1) In the Tables 10 - 12, compounds herein disclosed were tested in combination with various antibiotics against metallo β-lactamase producing bacteria.

[4] = system: P. aerug JMI 2686; assay: MIC, antibacterial and synergistic activity; conditions: P. aerug JMI 2686 (KPC-2 (Cpase)); substance alone
[5] = system: E. coli JMI 4080; assay: MIC, antibacterial and synergistic activity; conditions: Escherichia coli, JMI4080, E. coli JMI 4080 (Tem-10); substance alone
[6] = system: K. pneumo JMI 4106; assay: MIC, antibacterial and synergistic activity; conditions: K. pneumo JMI 4106 (KPC-3, TEM-1, SHV-12, SHV-141), substance alone
[7] = system: E. coli JMI 10767; assay: MIC, antibacterial and synergistic activity; conditions: Escherichia coli, JMI10767; E. coli JMI 10767 (Wt); substance alone
[8] = system: K. pneumo JMI 2697; assay: MIC, antibacterial and synergistic activity; conditions: K. pneumo JMI 2697 (IMP-4 (Cpase)); substance alone
Protocol: as §1

[9] = system: E. coli JMI 2692; assay: MIC, antibacterial and synergistic activity; conditions: Escherichia coli, JMI2692
Protocol: as §1

[10] = system: K. pneumo JMI 2693; assay: MIC, antibacterial and synergistic activity; conditions: K. pneumo JMI 2693 (NDM-1 (Cpase)); substance alone
Protocol: as §1

[11] = system: E. coli JMI 10770; assay: MIC, antibacterial and synergistic activity; conditions: Escherichia coli, JMI10770; E. coli JMI 10770 (CTX-M15 (Hyper ESBL)); substance alone
[12] = system: E. coli ATCC 25922; assay: MIC, antibacterial and synergistic activity; conditions: Escherichia coli, ATCC25922; E. coli ATCC 25922 (Wt); substance alone
[13] = system: E. coli JMI 11103; assay: MIC, antibacterial and synergistic activity; conditions: Escherichia coli, JMI11103, E. coli JMI 11103 (CTX-M15 (Intermediate ESBL)); substance alone
[14] = system: E.coli JMI 4103; assay: MIC, antibacterial and synergistic activity; conditions: Escherichia coli, JMI4103; E.coli JMI 4103 (KPC-2, Tem-1, CMY-Type); substance alone
[15] = system: K. pneumo JMI 2674; assay: MIC, antibacterial and synergistic activity; conditions: K. pneumo JMI 2674 (CTX-M15 (ESBL)); substance alone; remark: listed apart in the source
Protocol: (§2) In the Tables 10 - 12, compounds herein disclosed were tested in combination with various antibiotics against metallo β-lactamase producing bacteria. Table 3: Synergy of the inhibitor Ex. 1 (4 µg/mL) in combination with antibiotics

[16] = system: K. pneumo JMI 2699; assay: MIC, antibacterial and synergistic activity; conditions: K. pneumo JMI 2699 (VIM-1, CTX-M3), substance alone
Protocol: as §2

[17] = system: E. coli JMI 10768; assay: MIC, antibacterial and synergistic activity; conditions: Escherichia coli, JMI10768; E. coli JMI 10768 (CTX-M15 (Weak ESBL)); substance alone
Protocol: as §2

[18] = system: K. pneumo JMI 4088; assay: MIC, antibacterial and synergistic activity; conditions: K. pneumo JMI 4088 (KPC-3 (Cpase)); substance alone; remark: listed apart in the source
Protocol: as §2

[19] = system: P. aerug JMI 149; assay: MIC, antibacterial and synergistic activity
[20] = system: K. pneumo JMI 2673; assay: MIC, antibacterial and synergistic activity; conditions: K. pneumo JMI 2673 (CTX-M14 (ESBL)); substance alone
[21] = system: A. baumanii JMI 2659; assay: MIC, antibacterial and synergistic activity; conditions: Acinetobacter baumannii, JMI2659
[22] = system: K. pneumo JMI 2681; assay: MIC, antibacterial and synergistic activity
[23] = system: K.pneumo JMI 4109; assay: MIC, antibacterial and synergistic activity; conditions: K.pneumo JMI 4109 (SHV-1, SHV-12); substance alone
[24] = system: E. cloacae JMI 36; assay: MIC, antibacterial and synergistic activity; conditions: Enterobacter cloacae, JMI36
[25] = system: E. coli JMI 2671; assay: MIC, antibacterial and synergistic activity; conditions: Escherichia coli, JMI2671, E. coli JMI 2671 (VIM-19 (Cpase)); substance alone
Protocol: as §2

[26] = system: E. coli JMI 2665; assay: MIC, antibacterial and synergistic activity; conditions: Escherichia coli
Protocol: as §2

[27] = system: P. aerug JMI 2686; assay: MIC, antibacterial and synergistic activity; conditions: P. aerug JMI 2686 (KPC-2 (Cpase)); substance alone; remark: listed apart in the source
Protocol: as §2

[28] = Serratia marcescens, Isolate No 35, Enzyme IMP-4, unit assumed
[29] = E. coli JMI 2692 (NDM-1, TEM-1, CTX-M-15), substance alone, read-out: MIC
[30] = Citrobacter freundii, Isolate No 49469, Enzyme NDM-1, unit assumed
[31] = Enterobacter aerogenes, Isolate No 8397, Enzyme VIM-1, unit assumed
[32] = Enterobacter aerogenes, Isolate No 47683, Enzyme VIM-12, unit assumed
[33] = Enterobacter cloacae, Isolate No 4, Enzyme VIM-6, unit assumed
[34] = Enterobacter cloacae, Isolate No 10, Enzyme IMP-26, unit assumed
[35] = Enterobacter cloacae, Isolate No 25, Enzyme IMP-4, unit assumed
[36] = Enterobacter cloacae, Isolate No 1068, Enzyme VIM-2, unit assumed
[37] = Enterobacter cloacae, Isolate No 1471, Enzyme VIM-1, unit assumed
[38] = Enterobacter cloacae, Isolate No 3686, Enzyme IMP-1, unit assumed
[39] = Enterobacter cloacae, Isolate No 53477, Enzyme NDM-1, unit assumed
[40] = Escherichia coli, Isolate No 17, Enzyme NDM-1, unit assumed
[41] = Escherichia coli, Isolate No 49, Enzyme NDM-1, unit assumed
[42] = Escherichia coli, Isolate No 53749, Enzyme NDM-1, unit assumed
[43] = Klebsiella oxytoca, Isolate No 24825, Enzyme IMP-26, unit assumed
[44] = Klebsiella oxytoca, Isolate No 31141, Enzyme VIM-23, unit assumed
[45] = Klebsiella pneumoniae, Isolate No 16, Enzyme VIM-5, unit assumed
[46] = Klebsiella pneumoniae, Isolate No 38, Enzyme NDM-1, unit assumed
[47] = Providencia stuartii, Isolate No 26582, Enzyme VIM-1, unit assumed
[48] = Serratia marcescens, Isolate No 36098, Enzyme IMP-19, unit assumed

C[C@H]1[C@H](NC(=O)/C(=N\OC(C)(C)C(=O)O)c2csc(N)n2)C(=O)N1S(=O)(=O)O [Aztreonam, aztreonam, reference compound]
MIC [1]: 32 µg/mL | MIC [2]: > 512 µg/mL | MIC ([3]; Escherichia coli, Isolate No 13, Enzyme IMP-1): 16 | MIC [3, 28]: ≤ 0.12 µg/mL | MIC [4]: > 512 µg/mL | MIC [5]: 64 µg/mL | MIC [6]: 512 µg/mL | MIC ([6]; read-out: MIC): > 512 µg/mL | MIC [7]: ≤ 1 µg/mL | MIC [8]: > 512 µg/mL | MIC [9, 29]: > 512 µg/mL | MIC [10]: > 512 µg/mL | MIC [11]: 64 µg/mL | MIC [12]: 0.25 µg/mL | MIC [13]: 32 µg/mL | MIC [14]: > 512 µg/mL | MIC [15]: 512 µg/mL | MIC [16]: 128 µg/mL | MIC ([16]; read-out: MIC): > 512 µg/mL | MIC [17]: 8 µg/mL | MIC [18]: 512 µg/mL

CC(C)(O/N=C(\C(=O)N[C@@H]1C(=O)N2C(C(=O)[O-])=C(C[n+]3ccccc3)CS[C@H]12)c1csc(N)n1)C(=O)O [Ceftazidime, ceftazidime, reference compound]
MIC [19]: 256 µg/mL | MIC [20]: 32 µg/mL | MIC [21]: 512 µg/mL | MIC [2]: > 512 µg/mL | MIC [3, 30]: > 256 µg/mL | MIC [3, 31]: > 256 µg/mL | MIC [3, 32]: 256 µg/mL | MIC [3, 33]: 256 µg/mL | MIC [3, 34]: > 256 µg/mL | MIC [3, 35]: > 256 µg/mL | MIC [3, 36]: 128 µg/mL | MIC ([3]; Enterobacter cloacae, Isolate No 1280, Enzyme VIM-5, unit assumed): 64 µg/mL | MIC [3, 37]: > 256 µg/mL | MIC ([3]; Enterobacter cloacae, Isolate No 1874, Enzyme IMP-21, unit assumed): 32 µg/mL | MIC [3, 38]: > 256 µg/mL | MIC [3, 39]: > 256 µg/mL | MIC ([3]; Escherichia coli, Isolate No 13, Enzyme IMP-1, unit assumed): 256 µg/mL | MIC [3, 40]: > 256 µg/mL | MIC [3, 41]: > 256 µg/mL | MIC [3, 42]: > 256 µg/mL | MIC [3, 43]: > 256 µg/mL | MIC [3, 44]: 128 µg/mL | MIC [3, 45]: > 256 µg/mL | MIC [3, 46]: > 256 µg/mL | MIC [3, 47]: > 256 µg/mL | MIC [3, 28]: 64 µg/mL | MIC [3, 48]: 128 µg/mL | MIC [22]: 512 µg/mL | MIC [23]: 8 µg/mL | MIC [5]: 64 µg/mL | MIC ([6]; read-out: MIC): > 512 µg/mL | MIC [7]: ≤ 1 µg/mL | MIC [8]: > 512 µg/mL | MIC [9, 29]: > 512 µg/mL | MIC [10]: > 512 µg/mL | MIC [11]: 64 µg/mL | MIC [12]: 0.25 µg/mL | MIC [13]: 32 µg/mL | MIC [24]: 128 µg/mL | MIC [14]: > 512 µg/mL | MIC [15]: 512 µg/mL | MIC ([16]; read-out: MIC): > 512 µg/mL | MIC [17]: 8 µg/mL | MIC [25]: 64 µg/mL | MIC ([26]; JMI2665, E. coli JMI 2665 (CMY-2 (Plasmid Cpase)), substance alone, read-out: MIC): 8 µg/mL | MIC [27]: 512 µg/mL

C[C@@H](O)[C@H]1C(=O)N2C(C(=O)O)=C(S[C@@H]3CN[C@H](C(=O)N(C)C)C3)[C@H](C)[C@H]12 [Meropenem, meropenem, reference compound]
MIC ([19]; P. aerug JMI 149 (Bla+++D+), substance alone, read-out: MIC): 4 µg/mL | MIC [20]: ≤ 1 µg/mL | MIC [1]: ≤ 1 µg/mL | MIC ([21]; A. baumanii JMI 2659 (Ges-14 (Cpase)), substance alone, read-out: MIC): 64 µg/mL | MIC [3, 30]: 16 µg/mL | MIC [3, 31]: 64 µg/mL | MIC [3, 32]: 8 µg/mL | MIC [3, 33]: 2 µg/mL | MIC [3, 34]: 16 µg/mL | MIC [3, 35]: 16 µg/mL | MIC [3, 36]: 2 µg/mL | MIC [3, 37]: 2 µg/mL | MIC [3, 38]: 8 µg/mL | MIC [3, 39]: 32 µg/mL | MIC [3, 40]: 32 µg/mL | MIC [3, 41]: 8 µg/mL | MIC [3, 42]: 64 µg/mL | MIC [3, 43]: 32 µg/mL | MIC [3, 44]: 2 µg/mL | MIC [3, 45]: 8 µg/mL | MIC [3, 46]: 32 µg/mL | MIC [3, 47]: 1 µg/mL | MIC [3, 28]: 8 µg/mL | MIC [3, 48]: 8 µg/mL | MIC ([22]; K. pneumo JMI 2681 (Oxa-48 (Cpase)), substance alone, read-out: MIC): 64 µg/mL | MIC [23]: ≤ 1 µg/mL | MIC [5]: ≤ 1 µg/mL | MIC [7]: ≤ 1 µg/mL | MIC [8]: 64 µg/mL | MIC [9]: 256 µg/mL | MIC [10]: 8 µg/mL | MIC [11]: ≤ 1 µg/mL | MIC [12]: 0.06 µg/mL | MIC [13]: ≤ 1 µg/mL | MIC ([24]; E. cloacae JMI 36 (P99), substance alone, read-out: MIC): ≤ 1 µg/mL | MIC [14]: 64 µg/mL | MIC ([16]; read-out: MIC): 32 µg/mL | MIC [17]: ≤ 1 µg/mL | MIC [25]: 64 µg/mL | MIC ([26]; JMI2665): ≤ 1 µg/mL | MIC [18]: 512 µg/mL | MIC [27]: 512 µg/mL
